# Assay results: patent publication US20100076089A1, “ANTIMICROBIAL GEL FORMULATIONS” (NovaBay Pharmaceuticals, Inc., priority 2008, published 2010)
# Values joined by “and” are separate entries in the source; they are usually repeats but may differ in a detail not shown here. Identical values can stand only once.
# Columns and labels:
# [1] = Amount of N,N-dichloro-2,2-dimethyltaurine an AA-1 formulation can hold; format: physicochemical
# Excerpt: The formulations may be made by mixing the N-halogenated or N,N-dihalogenated amine compound with the polymer using water. Water/oil emulsions, hydrating agents, wetting agents, surfactants, and the like may also be used. Concentrations of N-halogenated or N,N-dihalogenated amine compound may range from about 0.01% to about 5.0% (by weight). Concentrations of polymer may be from about 0.01% to about 10% (by weight) in water. For example, in certain implementations, the concentration of N-halogenated or N,N-dihalogenated compounds may range from about 0.1% to about 2.0% (by weight). Higher concentrations of polymer may be required to formulate higher concentrations of the N-halogenated or N,N-dihalogenated amine compound. For example, a 1% AA-1 formulation can hold up to about 2% N,N-dichloro-2,2-dimethyltaurine, whereas a 2% AA-1 formulation can hold up to about 3.5% of the same compound. These ratios may differ as different polymers and N-halogenated or N,N-dihalogenated amine compound are combined in a given formulation.
# [2] = test system: S. aureus; assay: Time-kill assay of antimicrobial gel formulations; format: cell-based; conditions: final inoculum 1.5×10^7 CFU/mL, room temperature
# Procedure: Isolated S. aureus colonies were picked into 5 mL Tryptic Soy Broth (TSB) and grown for 4-6 hours at 37° C. Stock titers were determined by drop plate method. A working stock of S. aureus was prepared by dilution of the culture to a final inoculum of 1.5×10^8 colony forming units (CFU) per mL in sterile pH 4.0 saline. 900 μL of each tested formulation was placed in sterile glass tubes. A 0.1 mL aliquot of S. aureus suspension containing 1.5×10^8 CFU/mL was inoculated into the test sample container to give a final inoculum of 1.5×10^7 CFU/mL. The inoculated formulation was immediately mixed for 3 seconds following inoculation using a vortex and incubated at room temperature. A plate count was performed on the inoculated samples after 0, 5, 15, 30 and 60 minutes following inoculation as follows: • 0.1 mL of the inoculated antimicrobial test agent was placed into 0.9 mL of the D/E neutralizing broth • A 0.1 mL aliquot of each sample in D/E broth was drop plated on appropriately labeled agar dishes
# All plates were incubated at 37° C. for 24 hours for bacterial growth assessment. At the conclusion of the incubation period the number of colonies present on the plates was counted. The total number of survivors at each time point was calculated by multiplying the CFU count obtained by the dilution factor.
# [3] = test system: S. aureus 29213; assay: Radial diffusion assay of antimicrobial gel formulations; format: cell-based; conditions: 100 μl of formulation
# Procedure: Vials containing 0.6% NVC-422 (Drug Control), liquid, pH=5.0; 3% Polyox® WSR 205 (Placebo) Liquid, R.T. pH=5.0; 0.6% NVC-422/3% Polyox® WSR 205, Liquid, R.T., pH=5.0; 0.75% AA-1 (Placebo), 0.6% NVC-422/0.75% AA-1 and 0.23% AA-1 (alternate placebo) were prepared. The first three test articles appeared as clear liquids, while the last three appeared as gels. The samples were tested in the radial diffusion assay against S. aureus 29213. 100 μl of each formulation were tested in duplicate on two plates each (n=4 total).
# [4] = test system: S. aureus 6538 biofilm; assay: Calgary Biofilm Device (MBEC) assay, absorbance reading; format: cell-based; conditions: 24 hr biofilm, treatment 60 minutes, overnight regrowth in TSB; values greater than 0.1 indicate incomplete biofilm eradication
# Procedure: S. aureus 6538 biofilm was grown in MBEC plates for 24 hr at 35° C. for 24 hr in TSB prior to treatment using the method describe above. The MBEC lid containing pegs coated with biofilm was first rinsed in a plate containing […] of PBS in each well for 1 minute, prior to treatment with a plate containing formulations for 60 minutes total. The lid was neutralized in a plate containing 200 μl D/E Neutralization broth in each well for 1 minute before transferring the lid into a plate containing 150 μl TSB in each well. Plate was incubated overnight at 35° C. Absorbance was read at 650 nm the following day.
smiles,measurement,setting,value
"CC(C)(CS(=O)(=O)O)N(Cl)Cl [NVC-422, N,N-dichloro-2,2-dimethyltaurine]",amount of compound the formulation can hold,[1]; 1% AA-1 formulation,up to 2%
same,amount of compound the formulation can hold,[1]; 2% AA-1 formulation,up to 3.5%
"CC(C)(CS(=O)(=O)O)N(Cl)Cl [0.3% NVC-422 alone, N,N-dichloro-2,2-dimethyltaurine]",time to complete kill,[2],1 h
"CC(C)(CS(=O)(=O)O)N(Cl)Cl [0.6% NVC-422, N,N-dichloro-2,2-dimethyltaurine]","Clearing zone diameters, Sample 1",[3]; pH 5.0,15 mm
same,"Clearing zone diameters, Sample 2",[3]; pH 5.0,16 mm
same,"Clearing zone diameters, Sample 3",[3]; pH 5.0,16 mm
same,"Clearing zone diameters, Sample 4",[3]; pH 5.0,14 mm
same,"Clearing zone diameters, Average +/− SD","[3]; pH 5.0, n=4, pH 5",15.3 mm and 15.3 +/− 1.0 mm
same,Ave. Abs at 650 nm,[4],0.48
same,time to complete kill,[2]; listed as 0.6% NVC-422 alone,0.25 h
